Results published in patent publication US20240148821A1, “PHARMACEUTICAL USE OF CYCLIC PEPTIDE COMPOUND” (CHUGAI SEIYAKU KABUSHIKI KAISHA, priority 2021, published 2024).
Numbered stars: 1 amine (or outer) side, 2 acyl side, 3 side chain; on linkers, the order of the positions; unused ones are H or OH. Bridge positions count the residues as written; N and C are the ends. Square brackets hold non-standard residues; d marks the D form. Peptide text beside a SMILES is read from it. * marks the point of attachment. hPhe(3-Cl-4-CF3) = N[C@@H](CCc1ccc(C(F)(F)F)c(Cl)c1)C(=O)O; hPhe(3-F,4-CF3) = N[C@@H](CCc1ccc(C(F)(F)F)c(F)c1)C(=O)O; NMePhe(4-CF3) = CN[C@@H](Cc1ccc(C(F)(F)F)cc1)C(=O)O; hPhe(4-CF3) = N[C@@H](CCc1ccc(C(F)(F)F)cc1)C(=O)O; 3Oxa8azabicyclo(3.2.1)octane = C1CC2COCC1N2*; NMePhe(4-Cl) = CN[C@@H](Cc1ccc(Cl)cc1)C(=O)O; NMePhe(4-Me) = CN[C@@H](Cc1ccc(C)cc1)C(=O)O; NMePhe(2-Cl) = CN[C@@H](Cc1ccccc1Cl)C(=O)O; NMedβ3hAla = C[C@H](CC(=O)[*:2])N(C)[*:1]; NMeAla(cPent) = CN[C@@H](CC1CCCC1)C(=O)O; NMeGly(cPent) = CN[C@H](C(=O)O)C1CCCC1; Phe(4-Me) = Cc1ccc(C[C@H](N)C(=O)O)cc1; X136 = O=C(CN(CCN1CCNCC1)[*:1])[*:2]; NMeGly(cBu) = CN[C@H](C(=O)O)C1CCC1; NMeCha = CN[C@@H](CC1CCCCC1)C(=O)O; cisHyp = O=C(O)[C@@H]1C[C@H](O)CN1; X4 = C#CC[C@H](CC(=O)[*:2])N[*:1]; Hyp = O=C(O)[C@@H]1C[C@@H](O)CN1; NEtLeu = CCN[C@@H](CC(C)C)C(=O)O; NMeChg = CN[C@H](C(=O)O)C1CCCCC1; NMeI = CC[C@H](C)[C@H](NC)C(=O)O; Gly(cBu) = N[C@H](C(=O)O)C1CCC1; NMeD = CN[C@@H](CC(=O)O)C(=O)O; NMeL = CN[C@@H](CC(C)C)C(=O)O; NMeV = CN[C@H](C(=O)O)C(C)C; d(β3hA) = C[C@@H](N)CC(=O)O; NMeS = CN[C@@H](CO)C(=O)O; Morpholide = C1CN(*)CCO1; NMeA = CN[C@@H](C)C(=O)O; NMeAib = CNC(C)(C)C(=O)O; Piperidide = C1CCN(*)CC1; Pyrrolidide = C1CCN(*)C1; dNMeA = CN[C@H](C)C(=O)O; Ac5c = NC1(C(=O)O)CCCC1; Aze = O=C(O)[C@@H]1CCN1; NBuGly = CCCCNCC(=O)O; Aib = CC(C)(N)C(=O)O; X9 = c1cncc(C*)c1; Sar = CNCC(=O)O; Propyl = CCC*

molecular target: protein-protein interaction between Kras and SOS1 (biotin-tagged human Kras loaded with GDP, His-tagged human SOS1) (Homo sapiens (Human), UniProt P01116, G12D); test: Protein-protein interaction inhibition between Kras and SOS1 (KrasG12D-SOS PPI) using AlphaScreen; type: biochemical; conditions: AlphaScreen; biotin-tagged human Kras loaded with GDP, His-tagged human SOS1; read-out: KRAS G12D-SOS PPI IC50;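 also: kras produced in E. coli, Ni-coupled donor beads and streptavidin acceptor beads, excitation 680 nm with emission detected at 520–620 nm via singlet oxygen transfer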

SMILES | IC50 [nM]
CC[C@H](C)[C@@H]1NC(=O)[C@H](CC2CCCC2)N(C)C(=O)C[C@@H](C(=O)N2CCOCC2)N(C)C(=O)[C@H](C2CCCC2)N(C)C(=O)C2(CCCC2)NC(=O)[C@@H]2CCCN2C(=O)[C@H](CCc2ccc(C(F)(F)F)c(Cl)c2)NC(=O)CN(C)C(=O)[C@H](CC2CCCCC2)N(C)C(=O)[C@@H]2CCN2C(=O)[C@H](C)NC1=O [Compound 1176] ([NMeAla(cPent)]IA[Aze][NMeCha][Sar][hPhe(3-Cl-4-CF3)]P[Ac5c][NMeGly(cPent)][NMeD]-Morpholide; lactam N-11) | 0.8
CC[C@H](C)[C@@H]1NC(=O)[C@H](CC2CCCC2)N(C)C(=O)C[C@@H](C(=O)N2CCOCC2)N(C)C(=O)[C@H](C2CCCC2)N(C)C(=O)C2(CCCC2)NC(=O)[C@@H]2CCCN2C(=O)[C@H](CCc2ccc(C(F)(F)F)c(Cl)c2)NC(=O)CN(C)C(=O)[C@H](C2CCCC2)N(C)C(=O)[C@@H]2CCN2C(=O)[C@H](C)NC1=O [Compound 1145] ([NMeAla(cPent)]IA[Aze][NMeGly(cPent)][Sar][hPhe(3-Cl-4-CF3)]P[Ac5c][NMeGly(cPent)][NMeD]-Morpholide; lactam N-11) | 1.1
CCCOC[C@H]1C(=O)N(C)CC(=O)N[C@@H](CCc2ccc(C(F)(F)F)c(Cl)c2)C(=O)N2CCC[C@H]2C(=O)NC2(CCCC2)C(=O)N(C)[C@@H](C(C)C)C(=O)N(C)[C@H](C(=O)N2CCCCC2)CC(=O)N(C)[C@@H](CC(C)C)C(=O)N[C@@H]([C@@H](C)CC)C(=O)N(C)[C@@H](C)C(=O)N2CC[C@H]2C(=O)N1C [Compound 1646] ([NMeL]I[NMeA][Aze][NMeS](Propyl)[Sar][hPhe(3-Cl-4-CF3)]P[Ac5c][NMeV][NMeD]-Piperidide; lactam N-11) | 4.6
CC[C@H](C)[C@@H]1NC(=O)[C@H](CC2CCCC2)N(C)C(=O)C[C@@H](C(=O)N(C)C)N(C)C(=O)[C@H](C2CCCC2)N(C)C(=O)C2(CCCC2)NC(=O)[C@@H]2CCCN2C(=O)[C@H](CCc2ccc(C(F)(F)F)c(F)c2)NC(=O)CN(C)C(=O)[C@H](CC2CCCCC2)N(C)C(=O)[C@@H]2CCN2C(=O)[C@H](C)NC1=O [Compound 1340] ([NMeAla(cPent)]IA[Aze][NMeCha][Sar][hPhe(3-F,4-CF3)]P[Ac5c][NMeGly(cPent)][NMeD]-NMe2; lactam N-11) | 1.2
CC[C@H](C)[C@@H]1NC(=O)[C@H](CC(C)C)N(C)C(=O)C[C@@H](C(=O)N(C)C)N(C)C(=O)[C@H]([C@@H](C)CC)N(C)C(=O)[C@H](C(C)C)NC(=O)[C@@H]2CCCN2C(=O)[C@H](CCc2ccc(C(F)(F)F)c(Cl)c2)NC(=O)CN(C)C(=O)[C@H](Cc2ccc(C)cc2)NC(=O)[C@@H]2CCN2C(=O)[C@H](C)N(C)C1=O [Compound 660] ([NMeL]I[NMeA][Aze][Phe(4-Me)][Sar][hPhe(3-Cl-4-CF3)]PV[NMeI][NMeD]-NMe2; lactam N-11) | 210
CC[C@H](C)[C@@H]1NC(=O)[C@H](C)N(C)C(=O)C[C@@H](C(=O)N2CCCC2)N(C)C(=O)[C@H](C(C)C)N(C)C(=O)C2(CCCC2)NC(=O)[C@H](Cc2ccccc2Cl)N(C)C(=O)[C@H](CCc2ccc(C(F)(F)F)c(Cl)c2)NC(=O)CN(C)C(=O)[C@H](CC2CCCCC2)N(C)C(=O)CN(C)C(=O)CN(C)C1=O [Compound 2008] ([NMeA]I[Sar][Sar][NMeCha][Sar][hPhe(3-Cl-4-CF3)][NMePhe(2-Cl)][Ac5c][NMeV][NMeD]-Pyrrolidide; lactam N-11) | 140
C#CC[C@@H]1CC(=O)N(C)[C@@H](CC(C)C)C(=O)N[C@@H]([C@@H](C)CC)C(=O)N(C)[C@@H](C)C(=O)N2CC[C@H]2C(=O)N(C)[C@@H](Cc2ccc(C)cc2)C(=O)N(C)CC(=O)N[C@@H](CCc2ccc(C(F)(F)F)c(Cl)c2)C(=O)N2CCC[C@H]2C(=O)NC2(CCCC2)C(=O)N(C)[C@@H]([C@@H](C)CC)C(=O)N1 [Compound 1967] (cyclo([Ac5c][NMeI][X4][NMeL]I[NMeA][Aze][NMePhe(4-Me)][Sar][hPhe(3-Cl-4-CF3)]P)) | 77
CC[C@H](C)[C@@H]1NC(=O)[C@H](C)N(C)C(=O)C[C@@H](C)N(C)C(=O)[C@H](C2CCC2)N(C)C(=O)C(C)(C)N(C)C(=O)[C@@H]2CCCN2C(=O)[C@H](CCc2ccc(C(F)(F)F)c(Cl)c2)NC(=O)CN(C)C(=O)[C@H](CC2CCCCC2)N(C)C(=O)[C@@H]2CCN2C(=O)[C@H](C)N(C)C1=O [Compound 2157] (cyclo([Aze][NMeCha][Sar][hPhe(3-Cl-4-CF3)]P[NMeAib][NMeGly(cBu)][NMedβ3hAla][NMeA]I[NMeA])) | 6.9
CC(C)C[C@H]1C(=O)N[C@@H](C2CCC2)C(=O)N(C)[C@@H](C)C(=O)N2CC[C@H]2C(=O)N(C)[C@@H](CC2CCCCC2)C(=O)N(C)CC(=O)N[C@@H](CCc2ccc(C(F)(F)F)c(Cl)c2)C(=O)N2CCC[C@H]2C(=O)NC2(CCCC2)C(=O)N(C)[C@@H](C(C)C)C(=O)N[C@H](C)CC(=O)N1C [Compound 580] (cyclo([Ac5c][NMeV][d(β3hA)][NMeL][Gly(cBu)][NMeA][Aze][NMeCha][Sar][hPhe(3-Cl-4-CF3)]P)) | 66
CCCCN1CC(=O)N(C)CC(=O)N(C)[C@@H](Cc2ccc(Cl)cc2)C(=O)N(C)CC(=O)N[C@@H](CCc2ccc(C(F)(F)F)cc2)C(=O)N(C)[C@@H](CC(C)C)C(=O)NC(C)(C)C(=O)N(C)[C@@H](CC(C)C)C(=O)N[C@H](C)CC(=O)N(C)[C@@H](C)C(=O)N[C@@H]([C@@H](C)CC)C1=O [Compound 436] (cyclo([Aib][NMeL][d(β3hA)][NMeA]I[NBuGly][Sar][NMePhe(4-Cl)][Sar][hPhe(4-CF3)][NMeL])) | 160
CCO[C@@H]1C[C@H]2C(=O)NC3(CCCC3)C(=O)N(C)[C@@H](C3CCCC3)C(=O)N(C)[C@H](C)CC(=O)N(C)[C@@H](CC(C)C)C(=O)N[C@@H]([C@@H](C)CC)C(=O)N(C)CC(=O)N(C)CC(=O)N(C)[C@@H](Cc3ccc(C(F)(F)F)cc3)C(=O)N(C)CC(=O)N[C@@H](CCc3ccc(C(F)(F)F)c(Cl)c3)C(=O)N2C1 [Compound 541] (cyclo([Ac5c][NMeGly(cPent)][NMedβ3hAla][NMeL]I[Sar][Sar][NMePhe(4-CF3)][Sar][hPhe(3-Cl-4-CF3)][Hyp](Et))) | 4.3
CC[C@H](C)[C@@H]1NC(=O)[C@H](C)N(C)C(=O)C[C@@H](C)NC(=O)[C@H](C(C)C)N(C)C(=O)C2(CCCC2)NC(=O)[C@@H]2CCCN2C(=O)[C@H](CCc2ccc(C(F)(F)F)c(Cl)c2)NC(=O)[C@@H](C)N(C)C(=O)[C@H](CC2CCCCC2)N(C)C(=O)[C@@H]2CCN2C(=O)CN(C)C1=O [Compound 601] (cyclo([Ac5c][NMeV][d(β3hA)][NMeA]I[Sar][Aze][NMeCha][dNMeA][hPhe(3-Cl-4-CF3)]P)) | 87
CC[C@H](C)[C@@H]1NC(=O)[C@H](CC(C)C)N(C)C(=O)C[C@@H](C(=O)N2CCCCC2)N(C)C(=O)[C@H](C2CCCCC2)N(C)C(=O)C2(CCCC2)NC(=O)CN(CCN2CCNCC2)C(=O)[C@H](CCc2ccc(C(F)(F)F)c(Cl)c2)NC(=O)CN(C)C(=O)[C@H](CC2CCCCC2)N(C)C(=O)CN(C)C(=O)CN(C)C1=O [Compound 2184, (11S,17S,26S,29S,33S,36S)-11-[2-[3-chloro-4-(trifluoromethyl)phenyl]ethyl]-36-cyclohexyl-17-(cyclohexylmethyl)-29-isobutyl-15,18,21,24,30,34,37-heptamethyl-26-[(1S)-1-methylpropyl]-9-(2-piperazin-1-ylethyl)-33-(piperidine-1-carbonyl)-6,9,12,15,18,21,24,27,30,34,37-undecazaspiro[4.33]octatriacontane-7.10,13,16,19,22,25,28,31,35,38-undecone] ([NMeL]I[Sar][Sar][NMeCha][Sar][hPhe(3-Cl-4-CF3)][X136][Ac5c][NMeChg][NMeD]-Piperidide; lactam N-11) | 7.9
CCCOC[C@H]1C(=O)N(C)CC(=O)N[C@@H](CCc2ccc(C(F)(F)F)c(Cl)c2)C(=O)N2CCC[C@H]2C(=O)NC2(CCCC2)C(=O)N(C)[C@@H](C2CCCC2)C(=O)N(C)[C@H](C(=O)N2C3CCC2COC3)CC(=O)N(CC)[C@@H](CC(C)C)C(=O)N[C@@H]([C@@H](C)CC)C(=O)N(C)[C@@H](C)C(=O)N2CC[C@H]2C(=O)N1C [Compound 1193] ([NEtLeu]I[NMeA][Aze][NMeS](Propyl)[Sar][hPhe(3-Cl-4-CF3)]P[Ac5c][NMeGly(cPent)][NMeD]-{3Oxa8azabicyclo(3.2.1)octane}; lactam N-11) | 2.1
CC[C@H](C)[C@@H]1NC(=O)[C@H](CC(C)C)N(C)C(=O)C[C@@H](C(=O)N2CCCCC2)N(C)C(=O)[C@H](C2CCCCC2)N(C)C(=O)C2(CCCC2)NC(=O)[C@@H]2C[C@H](OCc3cccnc3)CN2C(=O)[C@H](CCc2ccc(C(F)(F)F)c(Cl)c2)NC(=O)CN(C)C(=O)[C@H](CC2CCCCC2)N(C)C(=O)CN(C)C(=O)CN(C)C1=O [Compound 2120] ([NMeL]I[Sar][Sar][NMeCha][Sar][hPhe(3-Cl-4-CF3)][cisHyp](X9)[Ac5c][NMeChg][NMeD]-Piperidide; lactam N-11) | 1
CC[C@H](C)[C@@H]1NC(=O)[C@H](C2CCCC2)N(C)C(=O)C[C@@H](C(=O)N2CCCCC2)N(C)C(=O)[C@H](C(C)C)N(C)C(=O)C2(CCCC2)NC(=O)[C@@H]2CCCN2C(=O)[C@H](CCc2ccc(C(F)(F)F)c(Cl)c2)NC(=O)CN(C)C(=O)[C@H](CC2CCCCC2)N(C)C(=O)[C@@H]2CCN2C(=O)[C@H](C)N(C)C1=O [Compound 225] ([NMeGly(cPent)]I[NMeA][Aze][NMeCha][Sar][hPhe(3-Cl-4-CF3)]P[Ac5c][NMeV][NMeD]-Piperidide; lactam N-11) | 15
CC[C@H](C)[C@@H]1NC(=O)[C@H](CC(C)C)N(C)C(=O)C[C@@H](C)N(C)C(=O)[C@H](C2CCCC2)N(C)C(=O)C2(CCCC2)NC(=O)[C@@H]2CCCN2C(=O)[C@H](CCc2ccc(C(F)(F)F)c(F)c2)NC(=O)CN(C)C(=O)[C@H](C2CCCC2)N(C)C(=O)[C@@H]2CCN2C(=O)[C@H](C)N(C)C1=O [Compound 386] (cyclo([Ac5c][NMeGly(cPent)][NMedβ3hAla][NMeL]I[NMeA][Aze][NMeGly(cPent)][Sar][hPhe(3-F,4-CF3)]P)) | 10
